# Experimental data published in patent US12673975B2, “Cyclic peptide, cell scaffold material, cell separating material, and medium” (FUJIFILM Corporation, priority 2019, dated 2026).
# Like-named read-outs stand apart in the source and are kept apart here. Starred links: 1 amine or outer side, 2 acyl side, 3 side chain; linkers in the order of their positions; H or OH if unused. Positions of bridges follow the written chain, without caps; N, C: chain ends. Non-standard residues stand in square brackets, D forms with d. Residues, ends and D or L forms follow the SMILES beside them. hCys = N[C@@H](CCS)C(=O)O; Dab = NCC[C@H](N)C(=O)O; X2 = O=C(C[*:1])[*:2]
# Experiments:
# [1] = Evaluation of molecule stability (alkali treatment, residual rate by LC/MS); assay type: physicochemical; details: for Stability (molecule stability, residual rate of the cyclic peptide rank): alkali treatment, residual rate by LC/MS; for Performance evaluation: Stability (residual rate of cyclic peptide after alkali treatment): 500 μM peptide aqueous solution plus equivalent of 1 M sodium hydroxide, 15° C., 3 hours, LC/MS peak area
# Outline: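 Stability read as percent of summed LC/MS peak area remaining versus untreated peptide (C18, 45 °C, 10 mM ammonium formate pH 3, ESI positive/negative). Treatment: 500 μM peptide in water plus an equivalent of 1 M NaOH, 15 °C for 3 hours.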
# human integrin αvβ5 = human integrin αvβ5 (Homo sapiens, UniProt P06756+P18084); experiment: Evaluation of integrin binding property (surface plasmon resonance, Biacore 3000, immobilized cyclic peptide)
# Sequence of human integrin αvβ5 (P06756 31-1048): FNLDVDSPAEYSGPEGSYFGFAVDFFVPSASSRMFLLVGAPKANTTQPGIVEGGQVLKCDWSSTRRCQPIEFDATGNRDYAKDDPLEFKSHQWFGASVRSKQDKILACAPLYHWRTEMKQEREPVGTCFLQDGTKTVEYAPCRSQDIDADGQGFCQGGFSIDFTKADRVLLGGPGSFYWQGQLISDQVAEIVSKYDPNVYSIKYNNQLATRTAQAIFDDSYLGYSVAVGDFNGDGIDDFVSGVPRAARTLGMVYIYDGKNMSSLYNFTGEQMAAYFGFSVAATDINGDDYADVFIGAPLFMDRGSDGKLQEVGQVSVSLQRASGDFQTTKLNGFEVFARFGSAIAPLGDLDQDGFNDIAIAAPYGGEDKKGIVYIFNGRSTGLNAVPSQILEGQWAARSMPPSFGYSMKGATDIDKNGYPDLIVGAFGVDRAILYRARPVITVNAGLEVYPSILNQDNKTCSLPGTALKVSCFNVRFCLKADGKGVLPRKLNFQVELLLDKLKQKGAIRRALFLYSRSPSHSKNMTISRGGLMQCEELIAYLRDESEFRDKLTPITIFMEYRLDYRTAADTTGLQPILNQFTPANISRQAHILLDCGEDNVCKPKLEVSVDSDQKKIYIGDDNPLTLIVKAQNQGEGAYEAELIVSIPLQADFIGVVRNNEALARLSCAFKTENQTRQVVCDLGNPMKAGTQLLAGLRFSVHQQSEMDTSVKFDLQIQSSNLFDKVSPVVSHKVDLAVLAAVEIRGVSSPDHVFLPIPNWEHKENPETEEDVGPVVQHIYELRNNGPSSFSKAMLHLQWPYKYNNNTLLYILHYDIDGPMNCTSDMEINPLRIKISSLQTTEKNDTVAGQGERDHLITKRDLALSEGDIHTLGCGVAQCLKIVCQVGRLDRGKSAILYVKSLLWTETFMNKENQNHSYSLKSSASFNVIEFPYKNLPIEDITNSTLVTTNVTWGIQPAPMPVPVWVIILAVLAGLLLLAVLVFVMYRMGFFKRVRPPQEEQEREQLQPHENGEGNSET
# Sequence of human integrin αvβ5 (P18084 24-799): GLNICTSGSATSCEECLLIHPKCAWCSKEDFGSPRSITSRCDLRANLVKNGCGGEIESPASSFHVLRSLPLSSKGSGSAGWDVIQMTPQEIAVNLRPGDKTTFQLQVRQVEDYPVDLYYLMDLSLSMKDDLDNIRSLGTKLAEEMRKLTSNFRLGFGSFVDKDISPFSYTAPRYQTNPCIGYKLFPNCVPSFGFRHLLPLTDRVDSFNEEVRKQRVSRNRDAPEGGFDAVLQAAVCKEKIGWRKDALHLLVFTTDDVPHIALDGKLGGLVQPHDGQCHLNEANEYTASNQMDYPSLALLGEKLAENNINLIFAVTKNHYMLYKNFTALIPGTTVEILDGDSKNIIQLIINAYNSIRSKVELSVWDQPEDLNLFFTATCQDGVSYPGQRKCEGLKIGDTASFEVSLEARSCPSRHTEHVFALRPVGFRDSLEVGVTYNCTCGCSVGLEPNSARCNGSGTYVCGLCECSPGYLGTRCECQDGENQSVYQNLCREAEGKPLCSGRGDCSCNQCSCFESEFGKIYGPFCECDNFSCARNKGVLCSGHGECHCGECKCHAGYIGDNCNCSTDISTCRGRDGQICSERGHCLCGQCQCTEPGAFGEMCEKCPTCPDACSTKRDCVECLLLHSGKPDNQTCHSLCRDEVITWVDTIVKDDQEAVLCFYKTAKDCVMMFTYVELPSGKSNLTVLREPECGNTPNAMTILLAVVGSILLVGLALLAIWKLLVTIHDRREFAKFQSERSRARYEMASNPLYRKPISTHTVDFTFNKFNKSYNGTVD
# Outline: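 Human αvβ5 (30-1,000 nM) flowed for 10 min at 25 °C over immobilized cyclic peptide in 20 mM HEPES, 150 mM NaCl, 5 mM MgCl2, pH 7.4, followed by 30 min running buffer and 0.5 M EDTA regeneration. Dissociation constant from peptide minus unimmobilized channel, scored into standard grades.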
# [2] = surface plasmon resonance, immobilized cyclic peptide, human integrin αvβ5, read-out: Binding activity (integrin binding property, dissociation constant rank)
# [3] = SPR, 25° C., HEPES buffer with 5 mM magnesium chloride, integrin 30-1,000 nM, read-out: Performance evaluation: Binding activity (dissociation constant between the cyclic peptide and human integrin αvβ5)
Kd (human integrin αvβ5; [2]) [nM],Kd (human integrin αvβ5; [3]) [nM],Compound,"Stability (molecule stability, residual rate of the cyclic peptide rank) [1]",Performance evaluation: Stability (residual rate of cyclic peptide after alkali treatment) [1]
< 50,–,"CC(C)[C@@H]1NC(=O)[C@@H](NC(=O)[C@H](CCCCN)NC(=O)[C@H](CCCCN)NC(=O)[C@@H](N)CCCCN)CCSCC(=O)NCC[C@@H](C(=O)O)NC(=O)CNC(=O)[C@H](Cc2ccccc2)NC(=O)[C@H]([C@@H](C)O)NC(=O)[C@H](CC(=O)O)NC(=O)CNC(=O)[C@H](CCCNC(=N)N)NC(=O)[C@@H]2CCCN2C1=O [Cyclic peptide 152, KKK-(Hcy)-VPRGDTFG(Dab(acetyl))] (H-KKK[hCys]VPRGDTFG[Dab]-OH; linker 4-13 via X2)",A (The residual rate of the cyclic peptide is 70% or more.),–
–,< 50,"CC[C@H](C)[C@@H]1NC(=O)[C@@H](NC(=O)[C@H](CCCCN)NC(=O)[C@H](CCCCN)NC(=O)[C@@H](N)CCCCN)CCSCC(=O)NCC[C@@H](C(=O)N[C@@H](C)C(=O)O)NC(=O)[C@H](Cc2ccccc2)NC(=O)[C@H]([C@@H](C)O)NC(=O)[C@H](CC(=O)O)NC(=O)CNC(=O)[C@H](CCCNC(=N)N)NC(=O)[C@@H]2CCCN2C1=O [Cyclic peptide 60, KKK-(Hcy)-IPRGDTF(Dab(acetyl))A] (H-KKK[hCys]IPRGDTF[Dab]A-OH; linker 4-12 via X2)",–,A (The residual rate of the cyclic peptide is 70% or more.)
–,< 50,"CC[C@H](C)[C@@H]1NC(=O)[C@@H](NC(=O)[C@H](CCCCN)NC(=O)[C@H](CCCCN)NC(=O)[C@@H](N)CCCCN)CCSCC(=O)NCC[C@@H](C(=O)O)NC(=O)[C@H](CCCNC(=N)N)NC(=O)[C@H](Cc2ccccc2)NC(=O)[C@H](CC(N)=O)NC(=O)[C@H](CC(=O)O)NC(=O)CNC(=O)[C@H](CCCNC(=N)N)NC(=O)[C@@H]2CCCN2C1=O [Cyclic peptide 11, KKK-(Hcy)-IPRGDNFR(Dab(acetyl))] (H-KKK[hCys]IPRGDNFR[Dab]-OH; linker 4-13 via X2)",–,A (The residual rate of the cyclic peptide is 70% or more.)
50 to 100,–,"CC(C)[C@@H]1NC(=O)[C@@H](NC(=O)[C@H](CCCCN)NC(=O)[C@H](CCCCN)NC(=O)[C@@H](N)CCCCN)CCSCC(=O)NCC[C@@H](C(=O)O)NC(=O)[C@H]([C@@H](C)O)NC(=O)[C@H](Cc2ccccc2)NC(=O)[C@H]([C@@H](C)O)NC(=O)[C@H](CC(=O)O)NC(=O)CNC(=O)[C@H](CCCNC(=N)N)NC(=O)[C@@H]2CCCN2C1=O [Cyclic peptide 154, KKK-(Hcy)-VPRGDTFT(Dab(acetyl))] (H-KKK[hCys]VPRGDTFT[Dab]-OH; linker 4-13 via X2)",A (The residual rate of the cyclic peptide is 70% or more.),–
< 50,–,"CC(C)[C@@H]1NC(=O)[C@@H](NC(=O)[C@H](CCCCN)NC(=O)[C@H](CCCCN)NC(=O)[C@@H](N)CCCCN)CCSCC(=O)NCC[C@@H](C(=O)O)NC(=O)[C@H](C)NC(=O)[C@H](Cc2ccccc2)NC(=O)[C@H]([C@@H](C)O)NC(=O)[C@H](CC(=O)O)NC(=O)CNC(=O)[C@H](CCCNC(=N)N)NC(=O)[C@H](CO)NC1=O [Cyclic peptide 149, KKK-(Hcy)-VSRGDTFA(Dab(acetyl))] (H-KKK[hCys]VSRGDTFA[Dab]-OH; linker 4-13 via X2)",A (The residual rate of the cyclic peptide is 70% or more.),–
–,< 50,"C[C@H](NC(=O)[C@H](CCCCN)NC(=O)[C@H](CCCCN)NC(=O)[C@@H](N)CCCCN)C(=O)N[C@H]1CCSCC(=O)NCC[C@@H](C(=O)N[C@@H](CC(=O)O)C(=O)O)NC(=O)[C@H](CCCNC(=N)N)NC(=O)[C@H](Cc2ccc(O)cc2)NC(=O)[C@H](CC(N)=O)NC(=O)[C@H](CC(=O)O)NC(=O)CNC(=O)[C@H](CCCNC(=N)N)NC(=O)[C@@H]2CCCN2C(=O)[C@H](Cc2ccc(O)cc2)NC1=O [Cyclic peptide 32, KKKA-(Hcy)-YPRGDNYR(Dab(acetyl))D] (H-KKKA[hCys]YPRGDNYR[Dab]D-OH; linker 5-14 via X2)",–,A (The residual rate of the cyclic peptide is 70% or more.)
